Laboratory results published in patent US20130158035A1, “[…] COMPOUNDS” (Brigham Young University, priority 2010, published 2013).

Test system: MDCK cells
Experiment: HGF-induced epithelial-mesenchymal transition / migration of MDCK cells on transwell filters (crystal violet densitometry)
Type: cell-based
Conditions: Canis lupus familiaris, MDCK, 24 h, Table 3, 10 μM compound, then HGF, percentage like untreated controls (unstimulated cells = maximal effect, HGF only = nil)
Method: MDCK cells were seeded at confluency into the wells of a transwell filter in DMEM with 10% fetal bovine serum. Cells were cultured for 24 hours. Test compounds, dissolved in DMSO, were added to each test well to a 10 μM final concentration, and then hepatocyte growth factor (HGF) was then added. The MDCK cells were cultured for 24 hours. Concurrently, controls treated with and without HGF and with no test compounds were also prepared.
After post-HGF addition culturing, transwell filters were prepared by repeated washing using ice cold PBS. The cells were then fixed with paraformaldehyde (3.7%) on ice for 15 minutes to the filters. After fixation, the transwell filters were washed repeatedly with PBS followed by staining with crystal violet for 15 minutes. The transwell filters were washed again with distilled water.
The upper surface of the transwell filters were swabbed using a cotton-tipped probe. The filters were photographed using a gel documentation system. Densitometry measurements were made on the test samples and compared with control samples.

Row | Compound | inhibition at 10 µM [%]
1 | NC(=O)c1ccccc1/N=C/c1cccc(O)c1O [Compound A-5] | 48.8
2 | COc1cc(CNc2ccc(N3CCOCC3)c(C(=O)O)c2)cc(Br)c1OC [Compound A-25] | < 5
3 | CC(C)c1ccc(/C=N/c2ccccc2C(N)=O)cc1 [Compound A-14] | < 5
4 | NC(=O)c1ccccc1/N=C/c1ccc(Cl)cc1Cl [Compound A-18] | < 5
5 | NC(=O)c1ccccc1/N=C/c1ccc2ccccc2c1 [Compound A-6] | > 5
6 | NC(=O)c1ccccc1/N=C/c1ccco1 [Compound A-11] | 27.9
7 | COc1cc(CNc2cc(C(=O)O)ccc2C)cc(Br)c1OC [Compound A-22] | 33.1
8 | COc1ccc(/C=N/c2ccccc2C(N)=O)cc1 [Compound A-15] | < 5
9 | NC(=O)c1ccccc1/N=C/c1cccc(Cl)c1Cl [Compound A-1] | 94

Same assay, conditions: Canis lupus familiaris, MDCK, 24 h, Table 4, 10 μM compound, then HGF, percentage like untreated controls (unstimulated cells = maximal effect, HGF only = nil)

Row | Compound | inhibition at 10 µM [%]
10 | Cc1nc(NC(=O)c2ccc(N3CCCC3)c([N+](=O)[O-])c2)ccc1I [Compound B-5] | 44
11 | Cc1cc(C)nc(NC(=O)c2cccc([N+](=O)[O-])c2)c1 [Compound B-7] | 52.5
12 | O=C(Nc1ccccn1)c1cccc([N+](=O)[O-])c1 [Compound B-8] | 45.3
13 | Cc1nc(NC(=O)c2cccc([N+](=O)[O-])c2)ccc1Br [Compound B-6] | 88.6

Same assay, conditions: Canis lupus familiaris, MDCK, 24 h, Table 5, 10 μM compound, then HGF, percentage like untreated controls (unstimulated cells = maximal effect, HGF only = nil)

Row | Compound | inhibition at 10 µM [%]
14 | Cc1cc(NC(=O)c2ccc(C)c([N+](=O)[O-])c2)c(C)cc1I [Compound B-33] | 56.9
15 | COc1cc(C(=O)Nc2ccc(N3CCCC3)cc2)cc(OC)c1OC [Compound B-25] | 94.9
16 | CCCCOc1ccc(C(=O)Nc2ccc(N3CCCC3=O)cc2)cc1 [Compound B-30] | 81.1
17 | Cc1cc(C)c(NS(=O)(=O)c2cccc([N+](=O)[O-])c2)c(C)c1 [Compound B-38] | 100
18 | COc1cc(C(=O)Nc2ccc(Nc3ccccc3)cc2)cc(OC)c1OC [Compound B-27] | 13.7
19 | Cc1cccc(NC(=O)c2ccc(-c3ccccc3)cc2)c1 [Compound B-17] | 30.2
20 | O=C(Nc1cccc([N+](=O)[O-])c1)c1ccc(-c2ccccc2)cc1 [Compound B-15] | 31.6
21 | COc1cc(OC)cc(C(=O)Nc2ccc(N3CCCC3)cc2)c1 [Compound B-29] | 26.4
22 | O=[N+]([O-])c1cccc(S(=O)(=O)Nc2ccc(Cl)c(Cl)c2)c1 [Compound B-35] | 71.1

Same assay, conditions: Canis lupus familiaris, MDCK, 24 h, Table 6, 10 μM compound, then HGF, percentage like untreated controls (unstimulated cells = maximal effect, HGF only = nil)

Row | Compound | inhibition at 10 µM [%]
23 | Cc1c(C(=O)OC(C)C)[nH]c2c1C(=O)CC(c1cccs1)C2 (centres unmarked) [Compound C-7] | 35.9
24 | CCOC(=O)c1[nH]c2c(c1C)C(=O)CC(c1ccc(OC)cc1)C2 (centres unmarked) [Compound C-13] | < 5
25 | CCOC(=O)c1[nH]c2c(c1C)C(=O)CC(c1ccco1)C2 (centres unmarked) [Compound C-4] | 62.2
26 | CCOC(=O)c1[nH]c2c(c1C)C(=O)CC(c1ccccc1)C2 (centres unmarked) [Compound C-8] | 30.6
27 | COC(=O)c1[nH]c2c(c1C)C(=O)CC(c1ccc(OC)cc1)C2 (centres unmarked) [Compound C-16] | < 5
28 | CCOC(=O)c1[nH]c2c(c1C)C(=O)CC(c1cccc(OC)c1)C2 (centres unmarked) [Compound C-1] | 96
29 | Cc1ccc(COC(=O)c2[nH]c3c(c2C)C(=O)CC(c2cccs2)C3)cc1 (centres unmarked) [Compound C-6] | 48.4

Same assay, conditions: Table 1; 10 μM compound, then HGF, 24 hours; percentage like untreated controls (unstimulated cells = maximal effect, HGF only = nil)

Row | Compound | Assay Value [%]
30 | COc1cccc(C2CC(=O)Nc3cc4c(cc32)CCC4)c1 (centres unmarked) [Compound 29] | 69.3
31 | COc1cccc(C2CC(=O)Nc3cc4c(cc32)CCC4)c1OC (centres unmarked) [Compound 26] | 90.4
32 | CCOc1cc(C2CC(=O)Nc3cc4c(cc32)OCCO4)ccc1O (centres unmarked) [Compound 18] | 15.9
33 | O=C1CC(c2ccccc2F)c2cc3c(cc2N1)OCCO3 (centres unmarked) [Compound 12] | 23.4
34 | COc1cccc(C2CC(=O)Nc3cc4c(cc32)OCCO4)c1 (centres unmarked) [Compound 17] | 10.7
35 | O=C1CC(c2cccc3ccccc23)c2cc3c(cc2N1)OCCO3 (centres unmarked) [Compound 7] | 17.1
36 | Cc1ccc(C)c(C2CC(=O)Nc3cc4c(cc32)OCCO4)c1 (centres unmarked) [Compound 14] | 8.8
37 | CCOc1c(Br)cc(C2CC(=O)Nc3cc4c(cc32)OCCO4)cc1OC (centres unmarked) [Compound 8] | 48.8
38 | O=C1CC(c2ccccc2C(F)(F)F)c2cc3c(cc2N1)CCC3 (centres unmarked) [Compound 28] | 95.2
39 | O=C1CC(c2cc(Br)ccc2F)c2cc3c(cc2N1)CCC3 (centres unmarked) [Compound 4] | 36.1

Same assay, conditions: Table 2; 10 μM compound, then HGF, 24 hours; percentage like untreated controls (unstimulated cells = maximal effect, HGF only = nil)

Row | Compound | Assay Value [%]
40 | COc1cc2c(cc1OC)C(c1cccc(C)c1)CC(=O)N2 (centres unmarked) [Compound 64] | <5
41 | COc1cc(C2CC(=O)Nc3cc4c(cc32)OCCO4)ccc1OCc1ccccc1 (centres unmarked) [Compound 70] | <5
42 | CCCCOc1ccccc1C1CC(=O)Nc2cc(OC)c(OC)cc21 (centres unmarked) [Compound 47] | <5
43 | CCOc1ccccc1C1CC(=O)Nc2cc(C)c(C)cc21 (centres unmarked) [Compound 33] | <5
44 | O=C1CC(c2ccc3c(c2)OCO3)c2cc3c(cc2N1)OCO3 (centres unmarked) [Compound 88] | <5
45 | CCOc1ccccc1C1CC(=O)Nc2cc(OC)c(OC)cc21 (centres unmarked) [Compound 61] | <5
46 | O=C1CC(c2ccc(OC(F)(F)F)cc2)c2cc3c(cc2N1)OCCO3 (centres unmarked) [Compound 78] | <5
47 | O=C1CC(c2ccccc2Cl)c2cc3c(cc2N1)OCCO3 (centres unmarked) [Compound 37] | <5
48 | COc1cc2c(cc1OC)C(c1cccc(Cl)c1)CC(=O)N2 (centres unmarked) [Compound 41] | <5
49 | Cc1cccc(C2CC(=O)Nc3cc4c(cc32)OCO4)c1 (centres unmarked) [Compound 85] | <5
50 | COc1ccccc1C1CC(=O)Nc2cc3c(cc21)OCCO3 (centres unmarked) [Compound 38] | <5
51 | O=C1CC(c2cccc(OCc3ccccc3)c2)c2cc3c(cc2N1)OCCO3 (centres unmarked) [Compound 58] | <5
52 | O=C1CC(c2ccccc2C(F)(F)F)c2cc3c(cc2N1)CCC3 (centres unmarked) [Compound 94] | <5
53 | Cc1ccc(C2CC(=O)Nc3cc4c(cc32)OCCO4)cc1 (centres unmarked) [Compound 54] | <5
54 | O=C1CC(c2ccc([N+](=O)[O-])cc2)c2cc3c(cc2N1)OCCO3 (centres unmarked) [Compound 53] | <5
55 | COc1cc2c(cc1OC)C(c1ccc(Cl)cc1Cl)CC(=O)N2 (centres unmarked) [Compound 49] | <5
56 | O=C1CC(c2cc3c(cc2[N+](=O)[O-])OCO3)c2cc3c(cc2N1)CCC3 (centres unmarked) [Compound 93] | <5
57 | CC(C)c1ccc(C2CC(=O)Nc3cc4c(cc32)OCO4)cc1 (centres unmarked) [Compound 71] | <5
58 | CCCOc1ccc(C2CC(=O)Nc3cc(OC)c(OC)cc32)cc1 (centres unmarked) [Compound 43] | <5
59 | COc1cc2c(cc1OC)C(c1ccccc1OCc1ccccc1)CC(=O)N2 (centres unmarked) [Compound 42] | <5
60 | COc1cc2c(cc1OC)C(c1cc(Br)c(OC)c(OC)c1)CC(=O)N2 (centres unmarked) [Compound 52] | <5
61 | COc1cc2c(cc1OC)C(c1cc(Br)ccc1OC)CC(=O)N2 (centres unmarked) [Compound 66] | <5

Same assay, conditions: Table 3; 10 μM compound, then HGF, 24 hours; percentage like untreated controls (unstimulated cells = maximal effect, HGF only = nil)

Row | Compound | Assay Value [%]
62 | C#CCOc1c(Br)cc(CNc2ccc(Cl)c(Cl)c2)cc1OC [Compound A-24] | 16.3
63 | COc1cc(CNc2ccc(C)c(Cl)c2)cc(I)c1OC [Compound A-20] | 81.9

Same assay, conditions: Table 4; 10 μM compound, then HGF, 24 hours; percentage like untreated controls (unstimulated cells = maximal effect, HGF only = nil)

Row | Compound | Assay Value [%]
64 | Cc1nc(NC(=O)c2ccc(N3CCOCC3)c([N+](=O)[O-])c2)ccc1I [Compound B-13] | 29.4
65 | Cc1nc(NC(=O)COc2ccc([N+](=O)[O-])cc2)ccc1Br [Compound B-1] | 97.1
